Laboratory results reported in BigSolDB 2.1.

O=P(O)(O)c1ccccc1-c1ccccc1O
Details | solubility (mole fraction)
in chlorobenzene, 300.97 K | 0.013
in chlorobenzene, 304.47 K | 0.0149
in chlorobenzene, 308.86 K | 0.0156
in chlorobenzene, 313.71 K | 0.0195
in chlorobenzene, 319.15 K | 0.0274
in chlorobenzene, 325.56 K | 0.036
in chlorobenzene, 332.4 K | 0.047
in chlorobenzene, 338.93 K | 0.0597
in chlorobenzene, 342.74 K | 0.07
in chlorobenzene, 346.96 K | 0.0853
in chlorobenzene, 349.4 K | 0.0974
in chlorobenzene, 352.87 K | 0.116
in chlorobenzene, 355.3 K | 0.131
in water, 308.6 K | 0.000258
in water, 314.7 K | 0.000336
in water, 320.97 K | 0.000396
in water, 332.2 K | 0.000496
in water, 337.7 K | 0.000579
in water, 342.4 K | 0.000688
in water, 347.77 K | 0.000763
in water, 352.6 K | 0.000859
in water, 358.3 K | 0.000984
in water, 362.37 K | 0.00115
